Results on 1 molecule are retold here after US20260240644A1, “BIOPOLYMER-BASED TYMPANOSTOMY TUBES WITH PROGRAMMABLE, TUNABLE, AND ON-DEMAND DEGRADATION” (Trustees of Tufts College, priority 2023, published 2026).

The experiment deals with Xen29, a Staphylococcus aureus strain. Kind of experiment: Kirby Bauer disc diffusion assay of Ciprodex-loaded chitosan. It counts as cell-based. The note with it: loaded in chitosan; growth inhibition of Xen29. The source says:
FIG. 27 depicts results of the Kirby Bauer disc diffusion assay.
To estimate the concentration of ciprofloxacin released by the chitosan, a standard curve was established using blank paper discs and known dilutions of Ciprodex.

Consider `O=C(O)c1cn(C2CC2)c2cc(N3CCNCC3)c(F)cc2c1=O` [Ciprofloxacin, ciprofloxacin], for which the “bioactivity of loaded Ciprofloxacin” value is “maintained its bioactivity”.
